pEC50, pKi: −log10 of the molar value. Like-named read-outs stand apart in the source and are kept apart here. Peptide text beside a SMILES is read from it.
Target: T1, XIAP BIR3 domain (Homo sapiens, UniProt P98170)
T1 construct: fluorescent probe 4 and the XIAP BIR3 domain (Sino Biological, Beijing, China) were used for all measurements; purchased Sino Biological, Beijing, China
Experiment: Fluorescence polarization inhibition (competition) assay
Type: binding
Details: for pEC50: read-out: EC50; for inhibition at 50 µM: 0.5 h; for EC50: read-out: log EC50 (converted)
Description: The fluorescence polarization assay was performed at r.t. in Corning 384-well black, polystyrene flat bottom plates (Corning, NY, USA) on a Synergy H4 Hybrid Reader (BioTek, Bad Friedrichshall, Germany). For fluorescence polarization measurements, (milipolarization units, mP) 484/20 nm excitation and 528/20 nm emission filters were selected. Phosphate buffer (pH 7.5) supplemented with γ-globulin (100 µg/mL) and NaN3 (0.02% w/v), fluorescent probe 4 and the XIAP BIR3 domain (Sino Biological, Beijing, China) were used for all measurements. All experiments were performed in duplicate. The obtained fluorescence polarization assay data were analyzed with Prism 5.0 Software (GraphPad Software, San Diego, ca.).
After a 15 min incubation at r.t., fluorescent probe 4 (2 nM) was added. The values were measured 30 min after the moment the probe was added. The assay was performed in phosphate buffer with a final DMSO concentration of 1.4% (v/v). […] In order to evaluate the quality and precision of the performed screening assay, we determined the Z´ factor as described by Zhang et al.. The obtained fluorescence polarization values were used to determine the percent inhibition, which was plotted as a function of the protein concentration. The EC50 and Ki values were calculated with GraphPad software (log(agonist) vs. response (variable slope) model) in combination with the web tool developed by Nikolovska-Coleska et al..
Fluorescence polarization inhibition assay and data analysis for 41m and 42m compounds was performed as described in the Material and Methods section of the manuscript. Briefly, 50 nM solution of the BIR3 XIAP protein in polarization buffer was added into phosphoroorganic compound solution (from 50 μM to 0.0537 nM). After 15 min incubation at r.t. the fluorescent probe 4 (2 nM) was added.
The values were read after 30 minutes from the moment the probe was added. The obtained fluorescence polarization values were used to determine the percentage of inhibition which was plotted as a function of the protein concentration (Supplementary Figure S4).
(1 picture or pasted object on this page, not shown here)

[1] = XIAP BIR3 50 nM, fluorescent probe 4 2 nM
[2] = antagonist 50 µM, inhibition of protein-probe interaction

T1 sequence (P98170 252-356 limits assumed): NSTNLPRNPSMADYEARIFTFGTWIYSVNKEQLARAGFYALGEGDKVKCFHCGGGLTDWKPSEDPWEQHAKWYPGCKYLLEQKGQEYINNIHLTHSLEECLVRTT

Row | pEC50 [1] | inhibition at 50 µM [2] | pKi [1] | EC50 [1] | log EC50 [1] | % Inh (50 µM) [2] | SMILES
1 | 6.47 |  |  |  |  |  | CC(C)[C@H](NC(=O)[C@H](C)N)C(=O)N1CCC[C@H]1C(=O)N[C@@H](Cc1c[nH]c2ccccc12)C(=O)O [Compound 3, H2N-Ala-Val-Pro-Trp-OH, reference compound] (H-AVPW-OH)
2 | 4.53 | 63.2% | 4.83 | 29.6 µM |  |  | CN[C@@H](C)C(=O)N[C@H](C(=O)N1CCC[C@H]1C(=O)NCP(=O)(C(C)(C)C)C(C)(C)C)C(C)C [Compound 5]
3 | 4.70 | 72% | 5.01 | 19.9 µM |  |  | CN[C@@H](C)C(=O)N[C@H](C(=O)N1CCC[C@H]1C(=O)NCP(=O)(C(C)(C)C)C(C)(C)C)C1CCCCC1 [Compound 6]
4 |  | 32% |  |  |  |  | CN[C@@H](C)C(=O)N[C@H](C(=O)N1CCC[C@H]1C(=O)NCP(=O)(C(C)C)C(C)C)C(C)C [Compound 7]
5 |  | 41.3% |  |  |  |  | CN[C@@H](C)C(=O)N[C@H](C(=O)N1CCC[C@H]1C(=O)NCP(=O)(C(C)C)C(C)C)C1CCCCC1 [Compound 8]
6 |  | ~25% |  |  |  |  | CN[C@@H](C)C(=O)N[C@H](C(=O)N1CCC[C@H]1C(=O)NCP(=O)(C1CCCCC1)C1CCCCC1)C(C)C [Compound 9]
7 |  | ~25% |  |  |  |  | CN[C@@H](C)C(=O)N[C@H](C(=O)N1CCC[C@H]1C(=O)NCP(=O)(C1CCCCC1)C1CCCCC1)C1CCCCC1 [Compound 10]
8 | 4.53 | 63.6% | 4.84 | 29.4 µM |  |  | CN[C@@H](C)C(=O)N[C@H](C(=O)N1CCC[C@H]1C(=O)NCP(=O)(c1ccccc1)c1ccccc1)C(C)C [Compound 11]
9 | 4.58 |  | 4.88 |  | 1.420 ± 0.051 µM | 67.1% | CN[C@@H](C)C(=O)N[C@H](C(=O)N1CCC[C@H]1C(=O)NCP(=O)(c1ccccc1)c1ccccc1)C1CCCCC1 [Compound 12]
10 | 4.51 | 61.6% | 4.82 | 30.8 µM |  |  | CN[C@@H](C)C(=O)N[C@H](C(=O)N1CCC[C@H]1C(=O)NCP(=O)(c1ccc(C)cc1)c1ccc(C)cc1)C(C)C [Compound 15, (S)-N-((di-p-tolylphosphoryl)methyl)-1-((S)-3-methyl-2-((S)-2-(methylamino)propanamido)butanoyl)pyrrolidine-2-carboxamide]
11 | 4.39 | 57% | 4.70 | 40.4 µM |  |  | CN[C@@H](C)C(=O)N[C@H](C(=O)N1CCC[C@H]1C(=O)NCP(=O)(c1ccc(C)cc1)c1ccc(C)cc1)C1CCCCC1 [Compound 16, (S)-1-((S)-2-cyclohexyl-2-((S)-2-(methylamino)propanamido)acetyl)-N-((di-p-tolylphosphoryl)methyl)pyrrolidine-2-carboxamide]
12 | 4.72 | 74% | 5.02 | 19.3 µM |  |  | CN[C@@H](C)C(=O)N[C@H](C(=O)N1CCC[C@H]1C(=O)NC(C)P(=O)(c1ccc(C)cc1)c1ccc(C)cc1)C1CCCCC1 (stereo partly drawn) [Compound 17, (2S)-1-((S)-2-cyclohexyl-2-((S)-2-(methylamino)propanamido)acetyl)-N-(1-(di-p-tolylphosphoryl)ethyl)pyrrolidine-2-carboxamide]
13 | 4.53 | 62% | 4.84 | 29.2 µM |  |  | CN[C@@H](C)C(=O)N[C@H](C(=O)N1CCC[C@H]1C(=O)NCP(=O)(c1ccccc1C)c1ccccc1C)C(C)C [Compound 18, (S)-N-((di-o-tolylphosphoryl)methyl)-1-((S)-3-methyl-2-((S)-2-(methylamino)propanamido)butanoyl)pyrrolidine-2-carboxamide]
14 | 4.55 | 66.2% | 4.86 | 28.1 µM |  |  | CN[C@@H](C)C(=O)N[C@H](C(=O)N1CCC[C@H]1C(=O)NCP(=O)(c1ccccc1C)c1ccccc1C)C1CCCCC1 [Compound 19, (S)-1-((S)-2-cyclohexyl-2-((S)-2-(methylamino)propanamido)acetyl)-N-((di-o-tolylphosphoryl)methyl)pyrrolidine-2-carboxamide]
15 | 4.32 | 50% | 4.62 | 48 µM |  |  | CN[C@@H](C)C(=O)N[C@H](C(=O)N1CCC[C@H]1C(=O)NCP(=O)(c1cc(C)cc(C)c1)c1cc(C)cc(C)c1)C(C)C [Compound 20, (S)-N-((bis(3,5-dimethylphenyl)phosphoryl)methyl)-1-((S)-3-methyl-2-((S)-2-(methylamino)propanamido)butanoyl)pyrrolidine-2-carboxamide]
16 | 4.65 | 74.4% | 4.95 | 22.5 µM |  |  | CN[C@@H](C)C(=O)N[C@H](C(=O)N1CCC[C@H]1C(=O)NCP(=O)(c1cc(C)cc(C)c1)c1cc(C)cc(C)c1)C1CCCCC1 [Compound 21]
17 | 4.49 | 59.2% | 4.79 | 32.4 µM |  |  | CN[C@@H](C)C(=O)N[C@H](C(=O)N1CCC[C@H]1C(=O)NC(C)P(=O)(c1cc(C)cc(C)c1)c1cc(C)cc(C)c1)C(C)C (some centres unmarked) [Compound 22]

Row | SMILES | pEC50 [1] | inhibition at 50 µM [2] | pKi [1] | EC50 [1] | log EC50 [1] | % Inh (50 µM) [2]
18 | CCc1ccc(OP(=O)(Oc2ccc(CC)cc2)C(C)NC(=O)[C@@H]2CCCN2C(=O)[C@@H](NC(=O)[C@H](C)NC)C(C)C)cc1 (some centres unmarked) [Compound 23] | 4.47 | 64.1% | 4.77 | 34.3 µM |  | 
19 | CCc1ccc(OP(=O)(Oc2ccc(CC)cc2)C(C)NC(=O)[C@@H]2CCCN2C(=O)[C@@H](NC(=O)[C@H](C)NC)C2CCCCC2)cc1 (some centres unmarked) [Compound 24] | 4.69 | 74.1% | 4.99 | 20.6 µM |  | 
20 | CN[C@@H](C)C(=O)N[C@H](C(=O)N1CCC[C@H]1C(=O)NC(C)P(=O)(Oc1ccc(C(C)C)cc1)Oc1ccc(C(C)C)cc1)C(C)C (some centres unmarked) [Compound 25] | 4.66 | 81.8% | 4.96 | 22 µM |  | 
21 | CN[C@@H](C)C(=O)N[C@H](C(=O)N1CCC[C@H]1C(=O)NC(C)P(=O)(Oc1ccc(C(C)C)cc1)Oc1ccc(C(C)C)cc1)C1CCCCC1 (some centres unmarked) [Compound 26] | 4.70 | 85.8% | 5.01 | 19.8 µM |  | 
22 | CN[C@@H](C)C(=O)N[C@H](C(=O)N1CCC[C@H]1C(=O)NC(C)P(=O)(Oc1ccc(C(C)(C)C)cc1)Oc1ccc(C(C)(C)C)cc1)C(C)C (stereo partly drawn) [Compound 27, bis(4-(tert-butyl)phenyl) (1-((S)-1-((S)-3-methyl-2-((S)-2-(methylamino)propanamido)butanoyl)pyrrolidine-2-carboxamido)ethyl)phosphonate] | 4.67 | 83.3% | 4.98 | 21.3 µM |  | 
23 | CN[C@@H](C)C(=O)N[C@H](C(=O)N1CCC[C@H]1C(=O)NC(C)P(=O)(Oc1ccc(C(C)(C)C)cc1)Oc1ccc(C(C)(C)C)cc1)C1CCCCC1 (stereo partly drawn) [Compound 28, bis(4-(tert-butyl)phenyl) (1-((S)-1-((S)-2-cyclohexyl-2-((S)-2-(methylamino)propanamido)acetyl)pyrrolidine-2-carboxamido)ethyl)phosphonate] | 4.57 | 77.3% | 4.88 | 26.7 µM |  | 
24 | CN[C@@H](C)C(=O)N[C@H](C(=O)N1CCC[C@H]1C(=O)NC(C)P(=O)(Oc1ccccc1)Oc1ccccc1)C(C)C (stereo partly drawn) [Compound 29, diphenyl (1-((S)-1-((S)-3-methyl-2-((S)-2-(methylamino)propanamido)butanoyl)pyrrolidine-2-carboxamido)ethyl)phosphonate] | 4.50 | 62.1% | 4.80 | 31.8 µM |  | 
25 | CN[C@@H](C)C(=O)N[C@H](C(=O)N1CCC[C@H]1C(=O)NC(C)P(=O)(Oc1ccccc1)Oc1ccccc1)C1CCCCC1 (stereo partly drawn) [Compound 30, diphenyl (1-((S)-1-((S)-2-cyclohexyl-2-((S)-2-(methylamino)propanamido)acetyl)pyrrolidine-2-carboxamido)ethyl)phosphonate] | 4.52 | 69% | 4.82 | 30.3 µM |  | 
26 | CCC(NC(=O)[C@@H]1CCCN1C(=O)[C@@H](NC(=O)[C@H](C)NC)C(C)C)P(=O)(Oc1ccccc1)Oc1ccccc1 (stereo partly drawn) [Compound 31, diphenyl (1-((S)-1-((S)-3-methyl-2-((S)-2-(methylamino)propanamido)butanoyl)pyrrolidine-2-carboxamido)propyl)phosphonate] | 4.42 | 57% | 4.72 | 38 µM |  | 
